Source: ChEMBL document CHEMBL3627682, “Exploration of the structure-activity relationship of 1,2,4-oxadiazole antibiotics” (2015)
In brackets after ≈: the same amount, converted by molar mass.

Tests used:
Assay type in all cases: functional
Staphylococcus aureus [1] = assay: Antibacterial activity against Staphylococcus aureus ATCC 29213
Enterococcus faecalis [2] = assay: Antibacterial activity against vancomycin-resistant Enterococcus faecalis 99
Staphylococcus aureus [3] = assay: Antibacterial activity against ciprofloxacin, gentamicin, oxacillin, penicillin, and linezolid-resistant Staphylococcus aureus NRS120 expressing mecA
Staphylococcus aureus [4] = assay: Antibacterial activity against vancomycin-resistant Staphylococcus aureus VRS2
Enterococcus faecalis [5] = assay: Antibacterial activity against Enterococcus faecalis ATCC 29212
Staphylococcus aureus [6] = assay: Antibacterial activity against methicillin, oxacillin, and tetracycline-resistant and vancomycin and linezolid-susceptible Staphylococcus aureus NRS100 COL expressing mecA
Bacillus licheniformis = assay: Antibacterial activity against Bacillus licheniformis ATCC 12759
[7] = tested on: Staphylococcus haemolyticus; assay: Antibacterial activity against Staphylococcus haemolyticus ATCC 29970
Bacillus cereus = assay: Antibacterial activity against Bacillus cereus ATCC 13061
Staphylococcus aureus [8] = assay: Antibacterial activity against ciprofloxacin, gentamicin, oxacillin, penicillin, and linezolid-resistant Staphylococcus aureus NRS119 expressing mecA
Staphylococcus aureus [9] = assay: Antibacterial activity against vancomycin-resistant Staphylococcus aureus VRS1
Enterococcus faecalis [10] = assay: Antibacterial activity against Enterococcus faecalis 201
[11] = tested on: Staphylococcus epidermidis; assay: Antibacterial activity against Staphylococcus epidermidis ATCC 35547
Enterococcus faecium [12] = assay: Antibacterial activity against Vancomycin-susceptible Enterococcus faecium 119-39A
Enterococcus faecium [13] = assay: Antibacterial activity against vancomycin-resistant Enterococcus faecium 106
Staphylococcus aureus [14] = assay: Antibacterial activity against methicillin, oxacillin, and tetracycline-resistant and vancomycin and linezolid-susceptible Staphylococcus aureus ATCC 27660 expressing mecA
Enterococcus faecium [15] = assay: Antibacterial activity against vancomycin-resistant Enterococcus faecium C68

Row | SMILES | MIC (Staphylococcus aureus [1]) [µg/mL] | other results
1 | Clc1c[nH]nc1-c1nc(-c2ccc3c(c2)OCO3)no1 | ≥ 128 | –
2 | Cn1c2ccccc2c2cc(-c3noc(-c4ccc(O)cc4)n3)ccc21 | ≥ 128 | –
3 | O=S(=O)(c1ccccc1)c1ccc(-c2noc(-c3ccc(O)cc3)n2)cc1 | ≥ 128 | –
4 | Oc1ccc(-c2nc(-c3ccc(Nc4ccc(C(F)(F)F)cc4)cc3)no2)cc1 | 32 (≈ 80.5 µM) | –
5 | C=CCOc1cc(-c2noc(-c3ccc(O)cc3)n2)ccc1Oc1ccc(C(F)(F)F)cc1 | 8 (≈ 17.6 µM) | –
6 | Oc1ccc(-c2nc(N3CCN(c4ccccc4)CC3)no2)cc1 | ≥ 128 | –
7 | Oc1ccc(-c2nc(-c3ccc(Sc4ccc(C(F)(F)F)cc4)cc3)no2)cc1 | 2 (≈ 4.83 µM) | MIC (Enterococcus faecalis [2]): 2 µg/mL (≈ 4.83 µM); MIC (Staphylococcus aureus [3]): 2 µg/mL (≈ 4.83 µM); MIC (Staphylococcus aureus [4]): 2 µg/mL (≈ 4.83 µM); MIC (Enterococcus faecalis [5]): 2 µg/mL (≈ 4.83 µM); MIC (Staphylococcus aureus [6]): 2 µg/mL (≈ 4.83 µM); MIC (Bacillus licheniformis): 1 µg/mL (≈ 2.41 µM); MIC [7]: 2 µg/mL (≈ 4.83 µM); MIC (Bacillus cereus): 8 µg/mL (≈ 19.3 µM); MIC (Staphylococcus aureus [8]): 2 µg/mL (≈ 4.83 µM); MIC (Staphylococcus aureus [9]): 2 µg/mL (≈ 4.83 µM); MIC (Enterococcus faecalis [10]): 2 µg/mL (≈ 4.83 µM); MIC [11]: 2 µg/mL (≈ 4.83 µM); MIC (Enterococcus faecium [12]): 2 µg/mL (≈ 4.83 µM); MIC (Enterococcus faecium [13]): 2 µg/mL (≈ 4.83 µM); MIC (Staphylococcus aureus [14]): 2 µg/mL (≈ 4.83 µM); MIC (Enterococcus faecium [15]): 2 µg/mL (≈ 4.83 µM)
8 | Oc1ccc(-c2nc(-c3ccc(Nc4ccc(F)cc4)cc3)no2)cc1 | ≥ 128 | –
9 | Oc1ccc(-c2nc(-c3ccc(N(Cc4ccccc4)c4ccccc4)cc3)no2)cc1 | ≥ 128 | –
10 | O=C(c1ccccc1)c1ccc(-c2noc(-c3ccc(O)cc3)n2)cc1 | ≥ 128 | –
11 | CC(=O)Nc1ccc(-c2noc(-c3ccc(O)cc3)n2)cc1 | ≥ 500 | –
12 | Clc1cccc(N2CCN(c3noc(-c4n[nH]cc4Cl)n3)CC2)c1 | 16 (≈ 43.8 µM) | –
13 | Oc1ccc(-c2nc(N3CCN(c4cccc(Cl)c4)CC3)no2)cc1 | ≥ 128 | –
14 | Cn1ccc2ccc(-c3noc(-c4n[nH]cc4Cl)n3)cc21 | ≥ 128 | –
15 | [N-]=[N+]=Nc1cc(Oc2ccc(C(F)(F)F)cc2)ccc1-c1noc(-c2ccc(O)cc2)n1 | ≥ 128 | –
16 | Oc1ccc(-c2nc(-c3ccc(Sc4ccc(F)cc4)cc3)no2)cc1 | 2 (≈ 5.49 µM) | –
17 | Oc1ccc(-c2nc(-c3ccc4c(ccn4Cc4ccccc4)c3)no2)cc1 | 128 (≈ 348 µM) | –
18 | Oc1ccc(-c2nc(-c3ccc(Sc4ccccc4)cc3)no2)cc1 | 2 (≈ 5.77 µM) | –
19 | Cn1ccc2cc(-c3noc(-c4ccc(O)cc4)n3)ccc21 | 8 (≈ 27.5 µM) | –
20 | Oc1ccc(-c2nc(-c3ccc(N4CCNCC4)cc3)no2)cc1 | 32 (≈ 99.3 µM) | –
21 | Cl.Nc1ccc(-c2noc(-c3ccc(O)cc3)n2)cc1 | ≥ 256 | –
22 | O=C1OCc2cc(-c3noc(-c4ccc(O)cc4)n3)ccc21 | ≥ 128 | –
23 | Oc1ccc(-c2nc(-c3ccc4[nH]c5ccccc5c4c3)no2)cc1 | ≥ 128 | –
24 | O=[N+]([O-])c1cc(-c2noc(-c3ccc(O)cc3)n2)ccc1Oc1ccc(C(F)(F)F)cc1 | 8 (≈ 18 µM) | –
25 | CN1CCN(c2ccc(-c3noc(-c4ccc(O)cc4)n3)cc2)CC1 | ≥ 128 | –
26 | Oc1ccc(-c2nc(-c3ccc(Cc4ccccc4)cc3)no2)cc1 | ≥ 128 | –
27 | Oc1ccc(-c2nc(-c3ccc4c(c3)C=CCO4)no2)cc1 | ≥ 128 | –
28 | CC(C)(C)OC(=O)Nc1ccc(-c2noc(-c3ccc(O)cc3)n2)cc1 | 8 (≈ 22.6 µM) | –
